The results in this text go back to ChEMBL document CHEMBL1158899, “Synthesis and structure-phytotoxicity relationships of acetylenic phenols and chromene metabolites, and their analogues, from the grapevine pathogen Eutypa lata” (J Nat Prod, 2003).

In series [1] the test system is Vitis vinifera. Description: Phytotoxicity against grape leaf assessed as decrease in chlorophyll level after 64 hrs by leaf disk assay relative to control. Format: organism-based. The following applies: in vivo. Set-up: scale not given: the % may be the effect or the level left.
For series [2], the system named is Vitis vinifera. Description: Phytotoxicity against grape leaf by leaf disk assay. As to conditions: in vivo; call rule not given here. Format: organism-based.

`CC1(C)C=Cc2cc(CO)ccc2O1` [EULATACHROMENE]: the Activity in the series on Vitis vinifera [1] came to 60%.

Consider `C=C(C)C#Cc1cc(C=O)ccc1O` [EUTYPINE], for which, in the series with Vitis vinifera [2], the outcome was Active.

Regarding `C=C(C)C#Cc1cc(O)ccc1O` [SICCAYNE], the Activity entry in the series with Vitis vinifera [2] is “Not Active”.
